This passage reports EC50 and IC50 results from patent US20230391772A1, “METHODS AND COMPOSITIONS FOR TARGETED PROTEIN DEGRADATION” (Ranok Therapeutics (Hangzhou) Co. Ltd., priority 2020, published 2023).

In general, EC50 refers to the concentration giving half of the maximal effect. Read a high EC50 as a need for much substance. What is called IC50 is the point on the concentration scale where inhibition reaches its midpoint. Lower therefore signals greater potency.

Experiment [1] relates to NCI-H358 human non-small cell lung cancer. Put plainly: NCI-H358 CCK-8 proliferation assay. The experiment is classed as cell-based. Particulars: NCI-H358 cells, 72 hr. In short, it runs like this: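 Percent inhibition derived from CCK-8 optical signal, normalised between DMSO-only cells (0%) and cell-free medium containing DMSO as background. Cells: MIA PaCa-2 carrying 2 KRAS(G12C) copies; NCI-H358, NCI-H23 carrying 1 copy apiece. Concentrations spanned 1.02 nM–20 μM in threefold increments.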

The target in a further experiment is T1, HSP90a protein (Homo sapiens, UniProt P07900).
T1 construct: purchased BPS Bioscience 50298
Put plainly: HSP90α-binding fluorescent polarization (FP) assay, BODIPY-labeled RNK04010 probe. The settings on record: FP competition with RNK04010 (BODIPY-labeled), 5 nM, 300 min at 25° C. In short, it runs like this:
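Competitive FP with N-terminal HSP90a; probe at 5 nM final, either BODIPY-labeled triazolone RNK04010 or FITC-geldanamycin. Test compounds as 2.5-fold dilutions from 20 μM to 5.2 nM. Incubated at 25 °C for 300 min (RNK04010) or 120 min (FITC-geldanamycin) before reading polarization.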

In experiment [1], `CCC(=O)N1CCN(c2nc(NCCC(=O)NCc3ccc(-n4c(O)nnc4-c4cc(C(C)C)c(O)cc4O)cc3)nc3c2CCN(c2cc(O)cc4ccccc24)C3)CC1` [Compound 50, N-(4-(3-(2,4-dihydroxy-5-isopropylphenyl)-5-hydroxy-4H-1,2,4-triazol-4-yl)benzyl)-3-((7-(3-hydroxynaphthalen-1-yl)-4-(4-propionylpiperazin-1-yl)-5,6,7,8-tetrahydropyrido[3,4-d]pyrimidin-2-yl)amino)propanamide, trifluoroacetic acid] had an EC50 greater than 1000 nM. Besides, the IC50 on HSP90a protein was 100 to 1000 nM.
The like results for `C=CC(=O)N1CCN(c2nc(NCCC(=O)NCCOCCOCCN[C@@H](C)C(=O)N[C@H](C(=O)N3CCC[C@H]3C(=O)Nc3snnc3-c3ccccc3)C3CCCCC3)nc3c2CCN(c2cc(O)cc4ccccc24)C3)CC1` [Compound 20, (S)-1-((2S,5S)-18-((4-(4-acryloylpiperazin-1-yl)-7-(3-hydroxynaphthalen-1-yl)-5,6,7,8-tetrahydropyrido[3,4-d]pyrimidin-2-yl)amino)-2-cyclohexyl-5-methyl-4,16-dioxo-9,12-dioxa-3,6,15-triazaoctadecanoyl)-N-(4-phenyl-1,2,3-thiadiazol-5-yl)pyrrolidine-2-carboxamide, trifluoroacetic acid] were, in that order, greater than 1000 nM and greater than 1000 nM.
The like results for `C=CC(=O)N1CCN(c2nc(NCCC(=O)NCCOCCOc3ccc(-n4c(O)nnc4-c4cc(CC)c(O)cc4O)cc3)nc3c2CCN(c2cc(O)cc4ccccc24)C3)CC1` [Compound 6, 3-((4-(4-acryloylpiperazin-1-yl)-7-(3-hydroxynaphthalen-1-yl)-5,6,7,8-tetrahydropyrido[3,4-d]pyrimidin-2-yl)amino)-N-(2-(2-(4-(3-(5-ethyl-2,4-dihydroxyphenyl)-5-hydroxy-4H-1,2,4-triazol-4-yl)phenoxy)ethoxy)ethyl)propanamide, trifluoroacetic acid] were, in that order, greater than 1000 nM and greater than 1000 nM.
With `C=CC(=O)N1CCN(c2nc(NCCC(=O)N3CCC(Cc4ccc(-n5c(O)nnc5-c5cc(C(C)C)c(O)cc5O)cc4)CC3)nc3c2CCN(c2cc(O)cc4ccccc24)C3)CC1` [Compound 1, 1-(4-(2-((3-(4-(4-(3-(2,4-dihydroxy-5-isopropylphenyl)-5-hydroxy-4H-1,2,4-triazol-4-yl)benzyl)piperidin-1-yl)-3-oxopropyl)amino)-7-(3-hydroxynaphthalen-1-yl)-5,6,7,8-tetrahydropyrido[3,4-d]pyrimidin-4-yl)piperazin-1-yl)prop-2-en-1-one, trifluoroacetic acid], the concentration giving a half-maximal response (EC50) in experiment [1] was greater than 1000 nM. This molecule returned an IC50 at HSP90a protein of 100 to 1000 nM.
The corresponding values for `CCC(=O)N1CCN(c2nc(NCCC(=O)NCc3ccc(-n4c(O)nnc4-c4cc(C(C)C)c(O)cc4O)cc3C(F)(F)F)nc3c2CCN(c2cc(O)cc4ccccc24)C3)CC1` [Compound 46, N-(4-(3-(2,4-dihydroxy-5-isopropylphenyl)-5-hydroxy-4H-1,2,4-triazol-4-yl)-2-(trifluoromethyl)benzyl)-3-((7-(3-hydroxynaphthalen-1-yl)-4-(4-propionylpiperazin-1-yl)-5,6,7,8-tetrahydropyrido[3,4-d]pyrimidin-2-yl)amino)propenamide] are greater than 1000 nM and 100 to 1000 nM.
In experiment [1], `CCC(=O)N1CCN(c2nc(NCCC(=O)N3CCC(CN4CCN(Cc5ccc(-n6c(O)nnc6-c6ccc(O)cc6O)cc5)CC4)CC3)nc3c2CCN(c2cc(O)cc4ccccc24)C3)CC1` [Compound 65, 1-(4-((4-(4-(3-(2,4-dihydroxyphenyl)-5-hydroxy-4H-1,2,4-triazol-4-yl)benzyl)piperazin-1-yl)methyl)piperidin-1-yl)-3-((7-(3-hydroxynaphthalen-1-yl)-4-(4-propionylpiperazin-1-yl)-5,6,7,8-tetrahydropyrido[3,4-d]pyrimidin-2-yl)amino)propan-1-one, trifluoroacetic acid] yielded an EC50 greater than 1000 nM. At HSP90a protein, the IC50 was in the range of 100 to 1000 nM.
Regarding `CC(=O)N1CCN(c2nc(NCCC(=O)NCCOCCOc3ccc(-n4c(O)nnc4-c4cc(C(C)C)c(O)cc4O)cc3)nc3c2CCN(c2cc(O)cc4ccccc24)C3)CC1` [Compound 70, 3-((4-(4-acetylpiperazin-1-yl)-7-(3-hydroxynaphthalen-1-yl)-5,6,7,8-tetrahydropyrido[3,4-d]pyrimidin-2-yl)amino)-N-(2-(2-(4-(3-(2,4-dihydroxy-5-isopropylphenyl)-5-hydroxy-4H-1,2,4-triazol-4-yl)phenoxy)ethoxy)ethyl)propanamide, trifluoroacetic acid], in experiment [1], the EC50 was greater than 1000 nM. The IC50 on HSP90a protein lay in the range of 100 to 1000 nM.
In experiment [1], `CC(=O)N1CCN(c2nc(NCCC(=O)NCc3ccc(-n4c(O)nnc4-c4cc(C(C)C)c(O)cc4O)cc3C(F)(F)F)nc3c2CCN(c2cc(O)cc4ccccc24)C3)CC1` [Compound 42, 3-((4-(4-acetylpiperazin-1-yl)-7-(3-hydroxynaphthalen-1-yl)-5,6,7,8-tetrahydropyrido[3,4-d]pyrimidin-2-yl)amino)-N-(4-(3-(2,4-dihydroxy-5-isopropylphenyl)-5-hydroxy-4H-1,2,4-triazol-4-yl)-2-(trifluoromethyl)benzyl)propanamide, trifluoroacetic acid] showed an EC50 greater than 1000 nM. On HSP90a protein, this molecule displayed an IC50 of 100 to 1000 nM.
In experiment [1], `C=CC(=O)N1CCN(c2nc(NCCC(=O)N3CCN(c4ccc(-n5c(O)nnc5-c5cc(C(C)C)c(O)cc5O)cc4)CC3)nc3c2CCN(c2cc(O)cc4ccccc24)C3)CC1` [Compound 2, 1-(4-(2-((3-(4-(4-(3-(2,4-dihydroxy-5-isopropylphenyl)-5-hydroxy-4H-1,2,4-triazol-4-yl)phenyl)piperazin-1-yl)-3-oxopropyl)amino)-7-(3-hydroxynaphthalen-1-yl)-5,6,7,8-tetrahydropyrido[3,4-d]pyrimidin-4-yl)piperazin-1-yl)prop-2-en-1-one, trifluoroacetic acid] gave an EC50 greater than 1000 nM. The IC50 at HSP90a protein is 100 to 1000 nM.
In experiment [1], `C=CC(=O)N1CCN(c2nc(NCCC(=O)NCc3ccc(-n4c(O)nnc4-c4cc(C(C)C)c(O)cc4O)cc3C(F)(F)F)nc3c2CCN(c2cc(O)cc4ccccc24)C3)CC1` [Compound 36, 3-((4-(4-acryloylpiperazin-1-yl)-7-(3-hydroxynaphthalen-1-yl)-5,6,7,8-tetrahydropyrido[3,4-d]pyrimidin-2-yl)amino)-N-(4-(3-(2,4-dihydroxy-5-isopropylphenyl)-5-hydroxy-4H-1,2,4-triazol-4-yl)-2-(trifluoromethyl)benzyl)propanamide, trifluoroacetic acid] had an EC50 greater than 1000 nM. Besides, the 50% inhibitory concentration (IC50) on HSP90a protein is 100 to 1000 nM.
`C=C(F)C(=O)N1CCN(c2nc(N3CCC(CN4CCN(Cc5ccc(-n6c(O)nnc6-c6cc(C(C)C)c(O)cc6O)cc5)CC4)CC3)nc3c2CCN(c2cccc4cccc(Cl)c24)C3)C[C@@H]1CC#N` [Compound 129, (S)-2-(4-(7-(8-chloronaphthalen-1-yl)-2-(4-((4-(4-(3-(2,4-dihydroxy-5-isopropylphenyl)-5-hydroxy-4H-1,2,4-triazol-4-yl)benzyl)piperazin-1-yl)methyl)piperidin-1-yl)-5,6,7,8-tetrahydropyrido[3,4-d]pyrimidin-4-yl)-1-(2-fluoroacryloyl)piperazin-2-yl)acetonitrile] registered an EC50 in experiment [1] of 100 to 1000 nM. Further, the IC50 on HSP90a protein was less than 100 nM.
`C=CC(=O)N1CCN(c2nc(NCCC(=O)N3CCN(Cc4ccc(-n5c(O)nnc5-c5cc(C(C)C)c(O)cc5O)cc4)CC3)nc3c2CCN(c2cccc4cccc(Cl)c24)C3)C[C@H]1CC#N` [Compound 100, (R)-2-(1-acryloyl-4-(7-(8-chloronaphthalen-1-yl)-2-((3-(4-(4-(3-(2,4-dihydroxy-5-isopropylphenyl)-5-hydroxy-4H-1,2,4-triazol-4-yl)benzyl)piperazin-1-yl)-3-oxopropyl)amino)-5,6,7,8-tetrahydropyrido[3,4-d]pyrimidin-4-yl)piperazin-2-yl)acetonitrile, trifluoroacetic acid] yielded an EC50 in experiment [1] greater than 1000 nM. Moreover, the IC50 at HSP90a protein is 100 to 1000 nM.
The corresponding values for `C=CC(=O)N1CCN(c2nc(NCCC(=O)NCc3ccc(-n4c(O)nnc4-c4cc(C(C)C)c(O)cc4O)cc3F)nc3c2CCN(c2cc(O)cc4ccccc24)C3)CC1` [Compound 47, 3-((4-(4-acryloylpiperazin-1-yl)-7-(3-hydroxynaphthalen-1-yl)-5,6,7,8-tetrahydropyrido[3,4-d]pyrimidin-2-yl)amino)-N-(4-(3-(2,4-dihydroxy-5-isopropylphenyl)-5-hydroxy-4H-1,2,4-triazol-4-yl)-2-fluorobenzyl)propenamide] are greater than 1000 nM and 100 to 1000 nM.
`C=CC(=O)N1CCN(c2nc(NCCC(=O)NCC3CCN(C(=O)C4CCN(Cc5ccc(-n6c(O)nnc6-c6cc(C(C)C)c(O)cc6O)cc5)CC4)CC3)nc3c2CCN(c2cccc4cccc(Cl)c24)C3)C[C@H]1CC#N` [Compound 102, (R)-3-((4-(4-acryloyl-3-(cyanomethyl)piperazin-1-yl)-7-(8-chloronaphthalen-1-yl)-5,6,7,8-tetrahydropyrido[3,4-d]pyrimidin-2-yl)amino)-N-((1-(1-(4-(3-(2,4-dihydroxy-5-isopropylphenyl)-5-hydroxy-4H-1,2,4-triazol-4-yl)benzyl)piperidine-4-carbonyl)piperidin-4-yl)methyl)propanamide, trifluoroacetic acid] had an EC50 in experiment [1] greater than 1000 nM. The same molecule displayed an IC50 at HSP90a protein of less than 100 nM.
